The text below walks through data of US20240075004A1, “VERY-LONG-CHAIN POLYUNSATURATED FATTY ACIDS, ELOVANOID HYDROXYLATED DERIVATIVES, AND METHODS OF USE” (The Board of Supervisors of Louisiana State University and …, priority 2020, published 2024).

The test has as its system IL-6, IL-1β, IL-8/CXCL8, CCL2/MCP-1, CXCL1/KC/GRO, VEGF, ICAM1(CD54), IL-10. Description: Sandwich ELISA of cytokines and chemokines in HNEpC challenged with stressors. It is filed as cell-based, human. The note with it: allergens. The text has this: • Lipopolysaccharide (LPS) from Escherichia coli serotype 0111:B4 (Catalog #L4391) were obtained from Sigma-Aldrich. LPS is the principal component of Gram-negative bacteria that activates the innate immune system through its recognition by Toll-like receptor 4 (TLR4). This leads to a signaling cascade that ultimately results in the activation of NF-κB and the production of proinflammatory cytokines. LPS we used for our experiments is a preparation of smooth (S)-form LPS purified from the Gram-negative E. coli 0111:B4 that was used at 30 μg/mL to challenge HNEpC. • Polyinosinic-polycytidylic acid (abbreviated as poly(I:C) or poly(rI):poly(rC)) is a synthetic analog of double-stranded viral RNA (dsRNA), a molecular pattern associated with viral infection such as loss of epithelial integrity, increased production of mucus and inflammatory cytokines. Poly(I:C), a TLR3 agonist activates the antiviral pattern recognition receptors TLR3, RIG-I/MDA5 and PKR, thereby inducing signaling via multiple inflammatory pathways, including NF-κB and IRF. High Molecular Weight Poly(I:C) comprises long strands of inosine poly(I) homopolymer annealed to strands of cytidine poly(C) homopolymer. The average size of Poly(I:C) HMW is from 1.5 kb to 8 kb. […]
In general terms: ELISA stands for enzyme-linked immunosorbent assay.

Consider `CC/C=C\C[C@H](O)\C=C/C=C/C=C/[C@H](O)C/C=C\C/C=C\CCCCCCCCCCCCCCC(=O)O` [ELV-N-34], for which the “allergen-triggered production of inflammatory cytokines, chemokines, ICAM1 and induction of autophagy and SASP” value is listed as “attenuated”.
